These results are taken from ChEMBL document CHEMBL5291721, “A preclinical secondary pharmacology resource illuminates target-adverse drug reaction associations of marketed drugs” (Nat Commun, 2023).

Test [1] has as its target T1, Alpha-2B adrenergic receptor (Homo sapiens, UniProt P18089).
T1 sequence (P18089 whole entry): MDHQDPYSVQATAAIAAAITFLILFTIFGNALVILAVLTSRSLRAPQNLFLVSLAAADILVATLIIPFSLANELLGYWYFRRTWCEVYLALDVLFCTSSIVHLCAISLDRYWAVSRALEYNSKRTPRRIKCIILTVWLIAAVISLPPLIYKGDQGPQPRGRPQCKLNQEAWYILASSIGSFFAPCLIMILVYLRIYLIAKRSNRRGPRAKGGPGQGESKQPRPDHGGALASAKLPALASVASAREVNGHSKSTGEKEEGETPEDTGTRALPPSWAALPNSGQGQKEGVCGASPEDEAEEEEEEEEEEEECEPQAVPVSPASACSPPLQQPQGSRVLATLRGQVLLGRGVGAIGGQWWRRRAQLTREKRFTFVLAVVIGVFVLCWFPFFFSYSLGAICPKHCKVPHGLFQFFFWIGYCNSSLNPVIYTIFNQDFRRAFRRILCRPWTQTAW

The target in the next test is Histamine H1 receptor (Homo sapiens, UniProt P35367).
Chain of Histamine H1 receptor (P35367 whole entry): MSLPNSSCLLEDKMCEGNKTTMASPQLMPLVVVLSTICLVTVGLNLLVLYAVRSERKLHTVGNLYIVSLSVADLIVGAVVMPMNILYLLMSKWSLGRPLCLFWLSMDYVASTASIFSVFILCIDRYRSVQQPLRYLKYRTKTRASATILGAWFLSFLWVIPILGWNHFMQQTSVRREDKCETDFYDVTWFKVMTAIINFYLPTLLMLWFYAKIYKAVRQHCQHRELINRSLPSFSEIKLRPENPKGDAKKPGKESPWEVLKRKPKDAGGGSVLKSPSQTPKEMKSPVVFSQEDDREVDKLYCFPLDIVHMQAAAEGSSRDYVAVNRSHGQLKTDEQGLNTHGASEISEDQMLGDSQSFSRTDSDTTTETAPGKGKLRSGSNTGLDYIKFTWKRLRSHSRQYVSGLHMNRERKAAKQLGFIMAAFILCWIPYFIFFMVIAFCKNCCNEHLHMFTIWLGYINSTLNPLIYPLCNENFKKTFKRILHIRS
In test [2] the target is 5-hydroxytryptamine receptor 2A (Homo sapiens, UniProt P28223). The format is functional, cell-based.
Chain of 5-hydroxytryptamine receptor 2A (P28223 whole entry): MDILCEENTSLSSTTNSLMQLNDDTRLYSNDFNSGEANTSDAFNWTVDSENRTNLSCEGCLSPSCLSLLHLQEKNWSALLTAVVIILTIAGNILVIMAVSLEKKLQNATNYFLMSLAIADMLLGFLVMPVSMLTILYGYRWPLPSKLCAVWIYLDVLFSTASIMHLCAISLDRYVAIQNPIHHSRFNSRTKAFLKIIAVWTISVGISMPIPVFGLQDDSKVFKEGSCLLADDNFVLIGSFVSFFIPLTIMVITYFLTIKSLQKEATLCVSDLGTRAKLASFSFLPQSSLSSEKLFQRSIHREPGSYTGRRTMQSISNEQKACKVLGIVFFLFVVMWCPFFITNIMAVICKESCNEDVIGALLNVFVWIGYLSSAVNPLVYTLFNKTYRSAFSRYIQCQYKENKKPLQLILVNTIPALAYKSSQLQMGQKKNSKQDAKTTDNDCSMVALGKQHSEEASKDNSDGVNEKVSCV
Test [3] addresses 5-hydroxytryptamine receptor 2B (Homo sapiens, UniProt P41595). The format is functional, cell-based.
The target in another test is Histamine H3 receptor (Homo sapiens, UniProt Q9Y5N1).
Chain of Histamine H3 receptor (Q9Y5N1 whole entry): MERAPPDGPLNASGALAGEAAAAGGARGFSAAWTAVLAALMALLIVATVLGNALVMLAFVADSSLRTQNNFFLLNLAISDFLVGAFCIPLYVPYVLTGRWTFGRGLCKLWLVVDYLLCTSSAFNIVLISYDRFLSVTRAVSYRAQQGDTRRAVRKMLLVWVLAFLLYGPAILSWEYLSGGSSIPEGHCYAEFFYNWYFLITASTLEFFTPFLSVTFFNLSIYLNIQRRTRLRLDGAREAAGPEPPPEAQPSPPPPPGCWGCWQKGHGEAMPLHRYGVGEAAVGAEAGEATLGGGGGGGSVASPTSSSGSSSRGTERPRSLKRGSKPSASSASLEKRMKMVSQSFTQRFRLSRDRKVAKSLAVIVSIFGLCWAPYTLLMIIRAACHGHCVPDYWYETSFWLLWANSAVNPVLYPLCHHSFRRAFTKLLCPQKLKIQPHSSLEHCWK
In test [4] the target is Kappa-type opioid receptor (Homo sapiens, UniProt P41145).
Chain of Kappa-type opioid receptor (P41145 whole entry): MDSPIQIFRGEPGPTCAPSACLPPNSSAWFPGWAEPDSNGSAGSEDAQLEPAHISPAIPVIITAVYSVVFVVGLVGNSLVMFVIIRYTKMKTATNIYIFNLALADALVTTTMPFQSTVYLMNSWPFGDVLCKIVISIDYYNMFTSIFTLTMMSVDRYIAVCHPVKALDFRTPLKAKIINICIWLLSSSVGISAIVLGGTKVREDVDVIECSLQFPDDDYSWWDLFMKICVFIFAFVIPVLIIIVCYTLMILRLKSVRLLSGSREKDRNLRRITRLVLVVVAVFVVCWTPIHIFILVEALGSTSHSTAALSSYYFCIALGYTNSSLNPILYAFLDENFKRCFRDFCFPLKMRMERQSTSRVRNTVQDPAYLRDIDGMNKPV
The next test deals with Acetylcholinesterase (Homo sapiens, UniProt P22303). The format is functional.
Chain of Acetylcholinesterase (P22303 whole entry): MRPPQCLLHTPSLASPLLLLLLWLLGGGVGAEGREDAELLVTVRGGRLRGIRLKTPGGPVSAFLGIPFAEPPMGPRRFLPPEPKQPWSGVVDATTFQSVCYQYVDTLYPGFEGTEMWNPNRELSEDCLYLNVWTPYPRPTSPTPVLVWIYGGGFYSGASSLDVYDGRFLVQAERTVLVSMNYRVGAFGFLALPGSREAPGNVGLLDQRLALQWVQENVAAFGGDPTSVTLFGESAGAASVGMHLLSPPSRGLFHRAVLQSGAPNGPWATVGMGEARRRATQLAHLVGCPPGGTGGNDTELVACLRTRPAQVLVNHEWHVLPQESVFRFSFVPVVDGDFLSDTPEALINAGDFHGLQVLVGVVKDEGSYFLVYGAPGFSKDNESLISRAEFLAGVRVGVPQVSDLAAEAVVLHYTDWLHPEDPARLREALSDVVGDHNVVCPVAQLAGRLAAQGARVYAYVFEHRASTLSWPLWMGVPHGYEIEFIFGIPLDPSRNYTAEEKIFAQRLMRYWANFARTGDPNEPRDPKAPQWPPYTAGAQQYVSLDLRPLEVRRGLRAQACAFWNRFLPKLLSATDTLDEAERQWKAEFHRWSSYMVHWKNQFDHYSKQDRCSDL
For test [5], the target named is cGMP-inhibited 3',5'-cyclic phosphodiesterase 3A (Homo sapiens, UniProt Q14432). The format is functional.
Chain of cGMP-inhibited 3',5'-cyclic phosphodiesterase 3A (Q14432 whole entry): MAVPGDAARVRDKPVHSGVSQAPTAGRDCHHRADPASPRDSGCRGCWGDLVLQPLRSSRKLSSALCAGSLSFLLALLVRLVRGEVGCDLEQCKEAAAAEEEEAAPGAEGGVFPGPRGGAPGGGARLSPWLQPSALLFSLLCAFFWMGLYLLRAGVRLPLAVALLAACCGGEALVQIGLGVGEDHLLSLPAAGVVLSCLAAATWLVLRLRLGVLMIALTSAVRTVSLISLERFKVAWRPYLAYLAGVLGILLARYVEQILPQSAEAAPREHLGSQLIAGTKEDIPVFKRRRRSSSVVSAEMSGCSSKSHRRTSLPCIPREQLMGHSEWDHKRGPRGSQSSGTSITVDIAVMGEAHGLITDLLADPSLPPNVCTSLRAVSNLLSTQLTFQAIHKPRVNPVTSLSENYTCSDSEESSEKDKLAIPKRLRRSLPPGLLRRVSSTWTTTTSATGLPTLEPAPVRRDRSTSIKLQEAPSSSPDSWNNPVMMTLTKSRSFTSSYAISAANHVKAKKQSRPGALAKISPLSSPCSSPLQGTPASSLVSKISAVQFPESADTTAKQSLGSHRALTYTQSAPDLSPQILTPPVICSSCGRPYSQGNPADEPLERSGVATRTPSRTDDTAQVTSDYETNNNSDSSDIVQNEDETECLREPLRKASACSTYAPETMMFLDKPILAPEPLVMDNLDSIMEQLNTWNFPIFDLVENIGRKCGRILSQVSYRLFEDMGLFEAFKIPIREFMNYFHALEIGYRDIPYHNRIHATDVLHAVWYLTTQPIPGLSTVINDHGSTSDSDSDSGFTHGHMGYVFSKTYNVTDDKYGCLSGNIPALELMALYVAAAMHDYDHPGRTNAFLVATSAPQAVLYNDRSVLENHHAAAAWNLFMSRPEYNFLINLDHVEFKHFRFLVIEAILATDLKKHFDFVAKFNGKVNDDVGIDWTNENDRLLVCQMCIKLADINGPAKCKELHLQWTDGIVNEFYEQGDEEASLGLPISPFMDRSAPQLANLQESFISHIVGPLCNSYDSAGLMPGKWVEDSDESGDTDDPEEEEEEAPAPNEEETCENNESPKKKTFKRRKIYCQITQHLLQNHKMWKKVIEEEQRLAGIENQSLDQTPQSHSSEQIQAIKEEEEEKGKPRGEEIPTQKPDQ
Another test concerns the target T2, Progesterone receptor (Homo sapiens, UniProt P06401).
T2 sequence (P06401 whole entry): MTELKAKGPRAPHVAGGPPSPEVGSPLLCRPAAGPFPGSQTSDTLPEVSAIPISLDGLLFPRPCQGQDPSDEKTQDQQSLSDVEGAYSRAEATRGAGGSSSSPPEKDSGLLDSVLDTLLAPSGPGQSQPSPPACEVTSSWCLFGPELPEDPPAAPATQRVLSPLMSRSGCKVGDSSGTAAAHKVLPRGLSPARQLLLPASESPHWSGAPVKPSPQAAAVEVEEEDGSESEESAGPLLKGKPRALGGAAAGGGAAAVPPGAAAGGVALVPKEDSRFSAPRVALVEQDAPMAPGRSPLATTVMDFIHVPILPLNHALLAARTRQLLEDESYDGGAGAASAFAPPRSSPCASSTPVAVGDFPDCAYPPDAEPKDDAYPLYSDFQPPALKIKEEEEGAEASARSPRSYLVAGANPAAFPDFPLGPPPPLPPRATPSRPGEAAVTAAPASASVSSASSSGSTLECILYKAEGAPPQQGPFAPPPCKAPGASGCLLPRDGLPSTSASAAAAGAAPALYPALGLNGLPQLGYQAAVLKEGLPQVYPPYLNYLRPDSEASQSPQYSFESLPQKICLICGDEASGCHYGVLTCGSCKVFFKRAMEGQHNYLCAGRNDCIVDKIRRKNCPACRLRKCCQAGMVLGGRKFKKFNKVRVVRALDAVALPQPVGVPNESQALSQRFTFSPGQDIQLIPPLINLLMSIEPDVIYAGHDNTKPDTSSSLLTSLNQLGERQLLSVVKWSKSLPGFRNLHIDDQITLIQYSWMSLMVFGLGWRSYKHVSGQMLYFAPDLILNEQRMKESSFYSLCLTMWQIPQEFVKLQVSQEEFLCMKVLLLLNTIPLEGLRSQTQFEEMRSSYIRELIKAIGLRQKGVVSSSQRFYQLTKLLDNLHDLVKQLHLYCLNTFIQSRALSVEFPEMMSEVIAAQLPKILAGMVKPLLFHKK

For test [6], the target named is Sodium-dependent noradrenaline transporter (Homo sapiens, UniProt P23975).
Chain of Sodium-dependent noradrenaline transporter (P23975 whole entry): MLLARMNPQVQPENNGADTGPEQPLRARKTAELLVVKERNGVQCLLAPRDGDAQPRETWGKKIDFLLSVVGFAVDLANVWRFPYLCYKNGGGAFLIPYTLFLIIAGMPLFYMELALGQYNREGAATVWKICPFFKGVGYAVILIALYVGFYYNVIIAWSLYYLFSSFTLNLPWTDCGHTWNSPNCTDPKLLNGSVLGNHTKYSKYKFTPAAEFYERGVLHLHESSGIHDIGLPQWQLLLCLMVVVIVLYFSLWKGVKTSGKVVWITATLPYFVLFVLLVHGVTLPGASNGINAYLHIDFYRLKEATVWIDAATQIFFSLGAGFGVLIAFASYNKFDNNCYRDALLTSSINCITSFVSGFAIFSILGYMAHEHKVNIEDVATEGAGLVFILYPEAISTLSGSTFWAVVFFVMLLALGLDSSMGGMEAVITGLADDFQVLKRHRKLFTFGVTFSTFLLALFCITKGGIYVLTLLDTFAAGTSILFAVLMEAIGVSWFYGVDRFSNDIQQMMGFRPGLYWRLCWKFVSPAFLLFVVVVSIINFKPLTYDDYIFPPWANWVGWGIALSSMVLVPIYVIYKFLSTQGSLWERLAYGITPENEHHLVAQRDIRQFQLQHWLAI
Another test addresses T3, Thromboxane A2 receptor (Homo sapiens, UniProt P21731).
T3 sequence (P21731 whole entry): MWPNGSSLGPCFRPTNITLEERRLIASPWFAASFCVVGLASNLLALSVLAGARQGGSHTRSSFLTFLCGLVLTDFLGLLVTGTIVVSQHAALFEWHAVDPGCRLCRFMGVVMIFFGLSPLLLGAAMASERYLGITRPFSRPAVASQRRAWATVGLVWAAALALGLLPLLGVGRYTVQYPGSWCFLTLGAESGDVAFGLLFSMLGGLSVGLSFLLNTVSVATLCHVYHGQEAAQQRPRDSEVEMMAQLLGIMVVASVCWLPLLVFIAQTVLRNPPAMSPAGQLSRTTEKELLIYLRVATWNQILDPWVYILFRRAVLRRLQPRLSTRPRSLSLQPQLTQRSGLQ
The format is functional, cell-based.
Further: assay procedure not described here.

Chain of 5-hydroxytryptamine receptor 2B (P41595 whole entry): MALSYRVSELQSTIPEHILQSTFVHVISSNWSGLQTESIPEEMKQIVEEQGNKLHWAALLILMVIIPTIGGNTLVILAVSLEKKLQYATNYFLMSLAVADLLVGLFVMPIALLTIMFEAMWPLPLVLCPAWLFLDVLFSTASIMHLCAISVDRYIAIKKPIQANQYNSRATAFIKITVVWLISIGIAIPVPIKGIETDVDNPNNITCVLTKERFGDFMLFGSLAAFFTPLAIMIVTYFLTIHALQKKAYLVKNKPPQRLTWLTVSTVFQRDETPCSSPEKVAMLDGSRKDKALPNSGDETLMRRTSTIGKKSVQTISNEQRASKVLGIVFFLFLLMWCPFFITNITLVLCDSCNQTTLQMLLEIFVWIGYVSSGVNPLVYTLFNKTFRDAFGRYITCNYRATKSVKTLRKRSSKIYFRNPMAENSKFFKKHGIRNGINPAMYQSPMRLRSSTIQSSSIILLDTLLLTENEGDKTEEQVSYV

On to `CN(C)CCC=C1c2ccccc2C(C)(C)c2ccccc21`, for which the AC50 is 11 µM in [1]; 0.0369 µM on Histamine H1 receptor; 4.5 µM in [2]; 4.34 µM in test [3]; 25 µM at Histamine H3 receptor.

As to `CCOC(=O)[C@H](CCc1ccccc1)N[C@@H](C)C(=O)N1[C@H](C(=O)O)C[C@@H]2CCC[C@@H]21`, the AC50 (in [3]; in test [4]; at Histamine H3 receptor) was over 10 µM throughout.

With `CCCSc1ccc2nc(NC(=O)OC)[nH]c2c1` [ALBENDAZOLE], the AC50 in test [3] and in test [4] was over 10 µM throughout.

As for `CNC(=O)c1ccccc1Sc1ccc2c(/C=C/c3ccccn3)n[nH]c2c1` [AXITINIB], the AC50 (in test [1]; at Histamine H1 receptor; in test [2]; in test [3]; on Histamine H3 receptor) was over 30 µM throughout.

On to `CC[C@H]1OC(=O)[C@H](C)[C@@H](O[C@H]2C[C@@](C)(OC)[C@@H](O)[C@H](C)O2)[C@H](C)[C@@H](O[C@@H]2O[C@H](C)C[C@H](N(C)C)[C@H]2O)[C@](C)(O)C[C@@H](C)CN(C)[C@H](C)[C@@H](O)[C@]1(C)O` [AZITHROMYCIN], for which the concentration at half-maximal activity (AC50) at Acetylcholinesterase was over 30 µM; in test [3] it was over 10 µM; in test [4], over 10 µM; in test [5], over 30 µM; at Progesterone receptor, over 30 µM; in test [6], over 30 µM. For the same compound, the AC50 on Thromboxane A2 receptor is over 30 µM; on Histamine H3 receptor, over 10 µM.

With `CCc1oc2ccccc2c1C(=O)c1cc(I)c(O)c(I)c1` [BENZIODARONE], the concentration at half-maximal activity (AC50) is over 30 µM on Acetylcholinesterase; over 30 µM in test [5]; 4.27 µM on Progesterone receptor; 12.6 µM in [6]; 29 µM on Thromboxane A2 receptor.

As for `Cc1ccc(-c2cc(C(F)(F)F)nn2-c2ccc(S(N)(=O)=O)cc2)cc1` [CELECOXIB], the half-maximal activity concentration (AC50) (in test [3]; in test [4]; at Histamine H3 receptor) was over 10 µM each time.

As for `CC1=C(C(=O)O)N2C(=O)[C@@H](NC(=O)[C@H](N)c3ccccc3)[C@H]2SC1` [CEPHALEXIN ANHYDROUS], the AC50 (in test [4]; at Histamine H3 receptor) was over 10 µM throughout.

On to `CN1C(=O)CCS(=O)(=O)C1c1ccc(Cl)cc1` (centres undefined) [CHLORMEZANONE], for which the AC50 in test [1] is over 10 µM; on Histamine H1 receptor, over 30 µM; in [2], over 10 µM; in [3], over 10 µM; in [4] it was over 10 µM.

As for `CN(C)CCC(c1ccc(Cl)cc1)c1ccccn1` (centres undefined) [CHLORPHENIRAMINE], the concentration at half-maximal activity (AC50) in test [3] is over 10 µM; in test [4], over 10 µM; at Histamine H3 receptor it was 11 µM.

Turning to `CN(C)/N=N/c1[nH]cnc1C(N)=O` [DACARBAZINE], the half-maximal activity concentration (AC50) in test [3] and in test [4] was over 10 µM each time.

`O=C1Nc2ccc(Cl)cc2[C@@](C#CC2CC2)(C(F)(F)F)O1` [EFAVIRENZ]: the AC50 is over 30 µM in [1]; over 30 µM on Histamine H1 receptor; over 30 µM in test [2]; over 10 µM in [3]; over 30 µM on Histamine H3 receptor.

As to `Cc1cc(C#N)cc(C)c1Oc1nc(Nc2ccc(C#N)cc2)nc(N)c1Br` [ETRAVIRINE], the AC50 on Acetylcholinesterase was over 30 µM; in test [5], over 30 µM; at Progesterone receptor, 0.08 µM; in test [6], 5.88 µM; on Thromboxane A2 receptor it was over 10 µM.

Regarding `C[N+]1(C)CCC(OC(=O)C(O)(c2ccccc2)C2CCCC2)C1` (centres undefined) [GLYCOPYRRONIUM BROMIDE], the AC50 (in test [5]; at Progesterone receptor; on Thromboxane A2 receptor) was over 30 µM each time.

Consider `C[C@]12CCC(=O)C=C1CC[C@@H]1[C@@H]2[C@@H](O)C[C@@]2(C)[C@H]1CC[C@]2(O)C(=O)CO` [HYDROCORTISONE], for which the AC50 (in test [3]; in [4]; on Histamine H3 receptor) was over 10 µM each time.

For `O=P1(NCCCl)OCCCN1CCCl` (centres undefined) [IFOSFAMIDE], the concentration at half-maximal activity (AC50) (in test [3]; in [4]; at Histamine H3 receptor) was over 30 µM each time.

For the compound `CCC(C)n1ncn(-c2ccc(N3CCN(c4ccc(OCC5COC(Cn6cncn6)(c6ccc(Cl)cc6Cl)O5)cc4)CC3)cc2)c1=O` (centres undefined) [ITRACONAZOLE], the concentration at half-maximal activity (AC50) (in [3]; in test [4]; on Histamine H3 receptor) was over 30 µM throughout.

For `c1ccc([C@H]2CN3CCSC3=N2)cc1` [LEVAMISOLE], the concentration at half-maximal activity (AC50) (in test [3]; in test [4]; on Histamine H3 receptor) was over 30 µM each time.

Turning to `C[C@H]1CNCCc2ccc(Cl)cc21` [LORCASERIN], the results for the concentration at half-maximal activity (AC50) (in [1]; at Histamine H1 receptor; at Histamine H3 receptor) were 5.7 µM, 28 µM and over 30 µM, respectively.

As to `C[C@@H](O)[C@H]1C(=O)N2C(C(=O)O)=C(S[C@@H]3CN[C@H](C(=O)N(C)C)C3)[C@H](C)[C@H]12` [MEROPENEM], the AC50 was over 300 µM in test [3], over 10 µM in test [4] and over 300 µM at Histamine H3 receptor.

`CNC1Cc2ccccc2N(C)c2ccccc21` (centres undefined) [METAPRAMINE]: the AC50 in test [1] was 29 µM; on Histamine H1 receptor, 0.34 µM; in [2] it was over 30 µM; on Histamine H3 receptor, over 30 µM.

Consider `Clc1ccc(C(c2ccccc2Cl)C(Cl)Cl)cc1` (centres undefined) [MITOTANE], for which the half-maximal activity concentration (AC50) in test [3] and in test [4] was over 10 µM each time.

In the case of `Cc1nc([N+](=O)[O-])cn1-c1ccc([N+](=O)[O-])cc1` [NITREFAZOLE], the AC50 (at Histamine H1 receptor; in test [2]; in test [3]; in [4]; on Histamine H3 receptor) was over 30 µM each time.

In the case of `COc1ccc(CC(C)(C)NC[C@H](O)c2cc(O)cc3c2OCC(=O)N3)cc1` [OLODATEROL], the AC50 was over 30 µM in test [1]; over 30 µM on Histamine H1 receptor; over 30 µM in [2]; 6.65 µM in [3]; over 30 µM at Histamine H3 receptor.

Consider `CCCN1C[C@H](CSC)C[C@@H]2c3cccc4[nH]cc(c34)C[C@H]21` [PERGOLIDE], for which the concentration at half-maximal activity (AC50) in [4] is 12.9 µM; on Histamine H3 receptor, over 30 µM.

`C1CCC(C(CC2CCCCN2)C2CCCCC2)CC1` (centres undefined) [PERHEXILINE] came in with an AC50 at Histamine H3 receptor of over 30 µM.

Regarding `c1cnc(N2CCN(Cc3ccc4c(c3)OCO4)CC2)nc1` [PIRIBEDIL], the AC50 at Histamine H1 receptor is over 30 µM; in test [2], over 30 µM; in [3], 2.3 µM; at Histamine H3 receptor it was over 30 µM.

With `Clc1ccc2nsnc2c1NC1=NCCN1` [TIZANIDINE], the half-maximal activity concentration (AC50) in [1] was 0.292 µM; at Histamine H1 receptor, over 10 µM; in test [3], over 30 µM; in test [4], over 10 µM; on Histamine H3 receptor it was over 10 µM.

Turning to `N[C@@H]1[C@H]2CN(c3nc4c(cc3F)c(=O)c(C(=O)O)cn4-c3ccc(F)cc3F)C[C@@H]12` [TROVAFLOXACIN], the AC50 (in test [3]; at Histamine H3 receptor) was over 30 µM throughout.

Take `Nc1ccn([C@H]2CC[C@@H](CO)O2)c(=O)n1` [ZALCITABINE]: the half-maximal activity concentration (AC50) is over 30 µM in test [1]; over 10 µM on Histamine H1 receptor; over 30 µM in [2]; over 10 µM in [3]; over 10 µM in [4].
